Reference: US11434242B2, “Dopamine-b-hydroxylase inhibitors” (BIAL-PORTELA & Cª, S.A., priority 2017, dated 2022)

What was measured:
DβH = biological target: T1, DβH (Homo sapiens, UniProt P09172); test: DβH inhibition assay in SK-N-SH cellular homogenates (tyramine to octopamine); type: biochemical; settings: SK-N-SH cell homogenate, inhibitor 1 μM
T1 construct: cellular homogenate (75 μg total protein); host or cells: SK-N-SH cells (homogenate)
T1 sequence (P09172 1-617): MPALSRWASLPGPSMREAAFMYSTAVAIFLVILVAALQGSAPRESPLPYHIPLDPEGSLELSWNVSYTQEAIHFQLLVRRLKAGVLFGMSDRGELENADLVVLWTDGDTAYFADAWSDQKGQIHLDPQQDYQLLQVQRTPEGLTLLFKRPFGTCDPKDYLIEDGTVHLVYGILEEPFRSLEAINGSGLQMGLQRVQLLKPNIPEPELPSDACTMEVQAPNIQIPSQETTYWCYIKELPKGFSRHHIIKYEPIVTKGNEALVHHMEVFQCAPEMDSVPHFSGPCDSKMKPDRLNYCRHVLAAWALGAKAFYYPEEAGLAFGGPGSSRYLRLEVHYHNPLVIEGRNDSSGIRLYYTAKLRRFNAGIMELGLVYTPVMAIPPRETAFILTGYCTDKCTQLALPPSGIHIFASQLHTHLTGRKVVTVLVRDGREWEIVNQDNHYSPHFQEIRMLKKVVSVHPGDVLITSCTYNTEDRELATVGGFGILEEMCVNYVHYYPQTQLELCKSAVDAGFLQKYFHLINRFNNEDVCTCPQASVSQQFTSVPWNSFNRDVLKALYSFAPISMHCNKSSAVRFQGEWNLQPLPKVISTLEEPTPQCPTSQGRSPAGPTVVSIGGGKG

[1] = biological target: T2, Dopamine beta hydroxylase (Homo sapiens, UniProt P09172); test: Dopamine beta hydroxylase activity in human plasma; type: biochemical; settings: for Plasma (0.01 μM), activity in % of control: inhibitor 0.01 μM; for Plasma (0.1 μM), activity in % of control: inhibitor 0.1 μM
T2 construct: 125 μl of plasma; tissue Instituto Português do Sangue Transplantação; host or cells: human plasma from healthy donors
T2 sequence (P09172 40-617 limits assumed): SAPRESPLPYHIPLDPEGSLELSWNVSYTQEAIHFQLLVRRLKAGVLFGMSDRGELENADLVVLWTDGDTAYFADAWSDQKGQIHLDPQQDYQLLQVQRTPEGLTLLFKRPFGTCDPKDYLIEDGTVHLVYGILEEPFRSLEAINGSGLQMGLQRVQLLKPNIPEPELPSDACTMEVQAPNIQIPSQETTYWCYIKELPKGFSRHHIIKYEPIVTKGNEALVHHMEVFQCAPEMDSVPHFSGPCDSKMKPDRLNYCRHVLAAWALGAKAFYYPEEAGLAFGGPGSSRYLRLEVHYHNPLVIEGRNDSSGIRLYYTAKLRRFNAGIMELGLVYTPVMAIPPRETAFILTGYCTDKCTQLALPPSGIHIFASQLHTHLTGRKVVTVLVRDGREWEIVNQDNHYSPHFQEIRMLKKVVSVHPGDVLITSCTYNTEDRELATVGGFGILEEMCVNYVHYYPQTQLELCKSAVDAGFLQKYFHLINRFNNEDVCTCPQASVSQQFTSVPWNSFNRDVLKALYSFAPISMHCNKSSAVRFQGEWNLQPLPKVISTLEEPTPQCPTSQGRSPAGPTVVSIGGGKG
Outline: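 Octopamine production from tyramine over 45 min at 37° C, measured photometrically at 330 nm after SCX extraction and periodate oxidation against an octopamine standard curve, indicates plasma DβH activity. Compounds tested at final 10, 100 and 1000 nM in human plasma, pH 5.0 cofactor buffer, 10 min preincubation; results as % of control.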

Compound	SKNSH (1 μM), activity in % of control (DβH)	Plasma (0.01 μM), activity in % of control [1]	Plasma (0.1 μM), activity in % of control [1]
CCOC(=O)Cc1[nH]c(=S)n2c1C[C@@H](c1cc(F)cc(F)c1)C2 [Example 1, (S)-ethyl 2-(6-(3,5-difluorophenyl)-3-thioxo-3,5,6,7-tetrahydro-2H-pyrrolo[1,2-c]imidazol-1-yl)acetate]	37.9 % of control		
[2H]C([2H])([2H])n1c(CC(=O)N[C@H]2CCOC2)c2n(c1=S)C[C@@]1(c3cc(Br)ccc3F)C[C@@H]21 [Example 461, 2-((5aS,6aR)-5a-(5-bromo-2-fluorophenyl)-2-(methyl-d)-3-thioxo-2,3,5,5a,6,6a-hexahydrocyclopropa[3,4]pyrrolo[1,2-c]imidazol-1-yl)-N—((S)-tetrahydrofuran-3-yl)acetamide]		45.6 % of control	6.9 % of control
[2H]C([2H])([2H])n1c(CC(=O)O)c2n(c1=S)C[C@@]1(c3cc(Br)ccc3F)C[C@@H]21 [Example 462, 2-((5aS,6aR)-5a-(5-bromo-2-fluorophenyl)-2-(methyl-d)-3-thioxo-2,3,5,5a,6,6a-hexahydrocyclopropa[3,4]pyrrolo[1,2-c]imidazol-1-yl)acetic Acid]		50.2 % of control	10.3 % of control
[2H]C([2H])([2H])n1c(CC(=O)NC2CCOCC2)c2n(c1=S)C[C@@]1(c3cc(Br)ccc3F)C[C@@H]21 [Example 463, 2-((5aS,6aR)-5a-(5-bromo-2-fluorophenyl)-2-(methyl-d)-3-thioxo-2,3,5,5a,6,6a-hexahydrocyclopropa[3,4]pyrrolo[1,2-c]imidazol-1-yl)-N-(tetrahydro-2H-pyran-4-yl)acetamide]		29.1 % of control	3.7 % of control
[2H]C([2H])([2H])n1c(CC(=O)N[C@@H]2CCCOC2)c2n(c1=S)C[C@@]1(c3cc(Br)ccc3F)C[C@@H]21 [Example 464, 2-((5aS,6aR)-5a-(5-bromo-2-fluorophenyl)-2-(methyl-d)-3-thioxo-2,3,5,5a,6,6a-hexahydrocyclopropa[3,4]pyrrolo[1,2-c]imidazol-1-yl)-N—((R)-tetrahydro-2H-pyran-3-yl)acetamide]		33.4 % of control	4.5 % of control
[2H]C([2H])([2H])n1c(CC(=O)N[C@@H]2CCOC2)c2n(c1=S)C[C@@]1(c3cc(Br)ccc3F)C[C@@H]21 [Example 465, 2-((5aS,6aR)-5a-(5-bromo-2-fluorophenyl)-2-(methyl-d)-3-thioxo-2,3,5,5a,6,6a-hexahydrocyclopropa[3,4]pyrrolo[1,2-c]imidazol-1-yl)-N—((R)-tetrahydrofuran-3-yl)acetamide]		62.3 % of control	9.0 % of control
CN(C(=O)Cc1c2n(c(=S)n1C)C[C@@]1(c3cc(Br)ccc3F)C[C@@H]21)[C@@H]1CCOC1 [Example 466, 2-((5aS,6aR)-5a-(5-bromo-2-fluorophenyl)-2-methyl-3-thioxo-2,3,5,5a,6,6a-hexahydrocyclopropa[3,4]pyrrolo[1,2-c]imidazol-1-yl)-N-methyl-N—((R)-tetrahydrofuran-3-yl)acetamide]		49.6 % of control	6.5 % of control
CN(C(=O)Cc1c2n(c(=S)n1C)C[C@@]1(c3c(F)ccc(Cl)c3F)C[C@@H]21)[C@@H]1CCOC1 [Example 467, 2-((5aS,6aR)-5a-(3-chloro-2,6-difluorophenyl)-2-methyl-3-thioxo-2,3,5,5a,6,6a-hexahydrocyclopropa[3,4]pyrrolo[1,2-c]imidazol-1-yl)-N-methyl-N—((R)-tetrahydrofuran-3-yl)acetamide]		27.9 % of control	4.0 % of control
CN(C(=O)Cc1c2n(c(=S)n1C)C[C@@]1(c3cc(Cl)ccc3F)C[C@@H]21)[C@@H]1CCOC1 [Example 468, 2-((5aS,6aR)-5a-(5-chloro-2-fluorophenyl)-2-methyl-3-thioxo-2,3,5,5a,6,6a-hexahydrocyclopropa[3,4]pyrrolo[1,2-c]imidazol-1-yl)-N-methyl-N—((R)-tetrahydrofuran-3-yl)acetamide]		65.8 % of control	13.1 % of control
[2H]C([2H])([2H])n1c(CC(=O)NC2CCOCC2)c2n(c1=S)C[C@H](c1c(F)ccc(Cl)c1F)C2 [Example 469, (S)-2-(6-(3-chloro-2,6-difluorophenyl)-2-(methyl-d)-3-thioxo-2,5,6,7-tetrahydro-3H-pyrrolo[1,2-c]imidazol-1-yl)-N-(tetrahydro-2H-pyran-4-yl)acetamide]		33.7 % of control	1.5 % of control
Fc1ccc(F)c([C@H]2Cc3c(CCN[C@@H]4CCOC4)[nH]c(=S)n3C2)c1F [Example 470]		112.0 % of control	79.4 % of control
CC(C)NCCCc1[nH]c(=S)n2c1C[C@H](c1c(F)ccc(F)c1F)C2 [Example 472, (R)-1-(3-(isopropylamino)propyl)-6-(2,3,6-trifluorophenyl)-2,5,6,7-tetrahydro-3H-pyrrolo[1,2-c]imidazole-3-thione hydrofluoride]		63.3 % of control	14.2 % of control
Cl.Fc1ccc(F)c([C@H]2Cc3c(CCNCC4CCOCC4)[nH]c(=S)n3C2)c1F [Example 473, (R)-1-(2-(((tetrahydro-2H-pyran-4-yl)methyl)amino)ethyl)-6-(2,3,6-trifluorophenyl)-2,5,6,7-tetrahydro-3H-pyrrolo[1,2-c]imidazole-3-thione hydrochloride]		98.9 % of control	46.2 % of control
Cn1c(CCN2CCCC2)c2n(c1=S)C[C@@H](c1c(F)ccc(F)c1F)C2 [Example 474, (R)-2-methyl-1-(2-(pyrrolidin-1-yl)ethyl)-6-(2,3,6-trifluorophenyl)-2,5,6,7-tetrahydro-3H-pyrrolo[1,2-c]imidazole-3-thione hydrofluoride]		92.5 % of control	79.3 % of control
Cl.Fc1ccc(F)c([C@H]2Cc3c(CCNC[C@@H]4CCCO4)[nH]c(=S)n3C2)c1F [Example 475, (R)-1-(2-((((S)-tetrahydrofuran-2-yl)methyl)amino)ethyl)-6-(2,3,6-trifluorophenyl)-2,5,6,7-tetrahydro-3H-pyrrolo[1,2-c]imidazole-3-thione hydrochloride]		85.0 % of control	67.0 % of control
Cn1c(CCNC(C)(C)C)c2n(c1=S)C[C@@H](c1c(F)ccc(F)c1F)C2 [Example 476, (R)-1-(2-(tert-butylamino)ethyl)-2-methyl-6-(2,3,6-trifluorophenyl)-2,5,6,7-tetrahydro-3H-pyrrolo[1,2-c]imidazole-3-thione Hydrofluoride]		94.3 % of control	64.8 % of control
Cl.Cn1c(CCNCC2CCOCC2)c2n(c1=S)C[C@@H](c1c(F)ccc(F)c1F)C2 [Example 477, (R)-2-methyl-1-(2-(((tetrahydro-2H-pyran-4-yl)methyl)amino)ethyl)-6-(2,3,6-trifluorophenyl)-2,5,6,7-tetrahydro-3H-pyrrolo[1,2-c]imidazole-3-thione hydrochloride]		84.6 % of control	59.4 % of control
Fc1ccc(F)c([C@H]2Cc3c(CCCN4CCCC4)[nH]c(=S)n3C2)c1F [Example 478, (R)-1-(3-(pyrrolidin-1-yl)propyl)-6-(2,3,6-trifluorophenyl)-2,5,6,7-tetrahydro-3H-pyrrolo[1,2-c]imidazole-3-thione hydrofluoride]		46.7 % of control	5.1 % of control
